Patent publication US9085555B2, “Complement pathway modulators and uses thereof” (priority 2011, dated 2015)

target: Factor D (Homo sapiens (Human), UniProt P00746); assay: biochemical; assay type: biochemical; details: read-out: IC50
Sequence (P00746 26-253): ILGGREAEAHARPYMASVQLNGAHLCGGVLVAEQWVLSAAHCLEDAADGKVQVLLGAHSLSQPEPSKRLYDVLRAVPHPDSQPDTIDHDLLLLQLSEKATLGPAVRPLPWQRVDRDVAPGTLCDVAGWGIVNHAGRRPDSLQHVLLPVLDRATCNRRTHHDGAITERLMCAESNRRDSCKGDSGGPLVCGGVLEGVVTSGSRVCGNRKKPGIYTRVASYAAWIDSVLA

Compound | IC50
C[C@]1(O)C[C@@H](C(=O)NCc2cccc(Cl)c2F)N(C(=O)Nc2cn(C(N)=O)c3ccccc23)C1 [Example 164, (2S,4S)-4-Hydroxy-4-methyl-pyrrolidine-1,2-dicarboxylic acid 1-[(1-carbamoyl-1H-indol-3-yl)-amide] 2-(3-chloro-2-fluoro-benzylamide)] | 400 nM
Cc1ncc(NC(=O)[C@@H]2C[C@@H](F)CN2C(=O)Nc2cn(C(N)=O)c3ccccc23)cc1Br [Example 165, (2S,4R)-4-Fluoro-pyrrolidine-1,2-dicarboxylic acid 1-[(1-carbamoyl-1H-indol-3-yl)-amide] 2-[(5-bromo-4-methyl-pyridin-3-yl)-amide]] | 140 nM
NC(=O)n1cc(NC(=O)N2C3CC3C[C@H]2C(=O)NCc2cccc(Cl)c2F)c2ccccc21 (stereo partly drawn) [Example 166, (1R,3S,5R)-2-Aza-bicyclo[3.1.0]hexane-2,3-dicarboxylic acid 2-[(1-carbamoyl-1H-indol-3-yl)-amide] 3-(3-chloro-2-fluoro-benzylamide)] | 3 nM
Cc1ncc(Br)cc1NC(=O)[C@@H]1C[C@@H](F)CN1C(=O)Nc1cn(C(N)=O)c2ccccc12 [Example 168, (2S,4R)-4-Fluoro-pyrrolidine-1,2-dicarboxylic acid 2-[(5-bromo-2-methyl-pyridin-3-yl)-amide] 1-[(1-carbamoyl-1H-indol-3-yl)-amide]] | 250 nM
NC(=O)n1cc(NC(=O)N2CCS[C@H]2C(=O)NCc2cccc(F)c2F)c2ccccc21 [Example 169, (S)-Thiazolidine-2,3-dicarboxylic acid 3-[(1-carbamoyl-1H-indol-3-yl)-amide] 2-(2,3-difluoro-benzylamide)] | 268 nM
NC(=O)n1cc(NC(=O)N2CCC[C@H]2C(=O)NCc2cccc(Cl)c2F)c2ccccc21 [Example 170, (S)-Pyrrolidine-1,2-dicarboxylic acid 1-[(1-carbamoyl-1H-indol-3-yl)-amide] 2-(3-chloro-2-fluoro-benzylamide)] | 30 nM
NC(=O)n1cc(NC(=O)N2[C@@H]3C[C@@H]3C[C@H]2C(=O)Nc2cncc(Br)c2)c2ccccc21 [Example 171, (1R,3S,5R)-2-Aza-bicyclo[3.1.0]hexane-2,3-dicarboxylic acid 2-[(1-carbamoyl-1H-indol-3-yl)-amide] 3-[(5-bromo-pyridin-3-yl)-amide]] | 200 nM
NC(=O)n1cc(NC(=O)N2[C@@H]3C[C@@H]3C[C@H]2C(=O)Nc2ncccc2F)c2ccccc21 [Example 172, (1R,3S,5R)-2-Aza-bicyclo[3.1.0]hexane-2,3-dicarboxylic acid 2-[(1-carbamoyl-1H-indol-3-yl)-amide] 3-[(3-fluoro-pyridin-2-yl)-amide]] | 1050 nM
NC(=O)n1cc(NC(=O)N2CCS[C@H]2C(=O)NCc2cccc(Cl)c2)c2ccccc21 [Example 174, (S)-Thiazolidine-2,3-dicarboxylic acid 3-[(1-carbamoyl-1H-indol-3-yl)-amide] 2-(3-chloro-benzylamide)] | 35 nM
NC(=O)n1cc(NC(=O)N2C3CC3C[C@H]2C(=O)Nc2cccc(Cl)c2F)c2ccccc21 (stereo partly drawn) [Example 176, (1R,3S,5R)-2-Aza-bicyclo[3.1.0]hexane-2,3-dicarboxylic acid 2-[(1-carbamoyl-1H-indol-3-yl)-amide] 3-[(3-chloro-2-fluoro-phenyl)-amide]] | 30 nM
NC(=O)n1cc(NC(=O)N2CC[C@@H](O)[C@H]2C(=O)NCc2cccc(Cl)c2)c2ccccc21 [Example 177, (2S,3R)-3-Hydroxy-pyrrolidine-1,2-dicarboxylic acid 1-[(1-carbamoyl-1H-indol-3-yl)-amide] 2-(3-chloro-benzylamide)] | 85 nM
NC(=O)n1cc(NC(=O)N2CCS[C@H]2C(=O)NCc2cccc(Cl)c2F)c2ccccc21 [Example 178, (S)-Thiazolidine-2,3-dicarboxylic acid 3-[(1-carbamoyl-1H-indol-3-yl)-amide] 2-(3-chloro-2-fluoro-benzylamide)] | 6 nM
[N-]=[N+]=NC[C@H]1CC[C@@H](C(=O)Nc2cccc(OC(F)(F)F)c2)N1C(=O)Nc1cn(C(N)=O)c2ccccc12 [Example 179, (2S,5R)-5-azidomethyl-pyrrolidine-1,2-dicarboxylic acid 1-[(1-carbamoyl-1H-indol-3-yl)-amide]2-[(3-trifluoromethoxy-phenyl)-amide]] | 400 nM
NC(=O)n1cc(NC(=O)N2CC3(CC3)C[C@H]2C(=O)NCc2cccc(Cl)c2)c2ccccc21 [Example 180, (S)-5-Aza-spiro[2.4]heptane-5,6-dicarboxylic acid 5-[(1-carbamoyl-1H-indol-3-yl)-amide] 6-(3-chloro-benzylamide)] | 650 nM
NC(=O)n1cc(NC(=O)N2C[C@@](F)(CO)C[C@H]2C(=O)NCc2cccc(Cl)c2F)c2ccccc21 [Example 181, (2S,4R)-4-Fluoro-4-hydroxymethyl-pyrrolidine-1,2-dicarboxylic acid 1-[(1-carbamoyl-1H-indol-3-yl)-amide] 2-(3-chloro-2-fluoro-benzylamide)] | 20 nM
C[C@H]1C[C@@H](C(=O)NCc2cccc(Cl)c2F)N(C(=O)Nc2cn(C(N)=O)c3ccccc23)C1 [Example 182, (2S,4S)-4-Methyl-pyrrolidine-1,2-dicarboxylic acid 1-[(1-carbamoyl-1H-indol-3-yl)-amide] 2-(3-chloro-2-fluoro-benzylamide)] | 63 nM
NC(=O)n1cc(NC(=O)N2C3CC3C[C@H]2C(=O)NCc2cccc(Cl)c2)c2ccccc21 (stereo partly drawn) [Example 183, (1R,3S,5R)-2-Aza-bicyclo[3.1.0]hexane-2,3-dicarboxylic acid 2-[(1-carbamoyl-1H-indol-3-yl)-amide] 3-(3-chloro-benzylamide)] | 20 nM
COC[C@@]12C[C@@H](C(=O)NCc3cccc(Cl)c3F)N(C(=O)Nc3cn(C(N)=O)c4ccccc34)[C@@H]1C2 [Example 184, (1R,3S,5S)-5-Methoxymethyl-2-aza-bicyclo[3.1.0]hexane-2,3-dicarboxylic acid 2-[(1-carbamoyl-1H-indol-3-yl)-amide] 3-(3-chloro-2-fluoro-benzylamide)] | 9 nM
NC(=O)n1cc(NC(=O)N2C3CC3C[C@H]2C(=O)Nc2ccncc2F)c2ccccc21 (stereo partly drawn) [Example 185, (1R,3S,5R)-2-Aza-bicyclo[3.1.0]hexane-2,3-dicarboxylic acid 2-[(1-carbamoyl-1H-indol-3-yl)-amide] 3-[(3-fluoro-pyridin-4-yl)-amide]] | 550 nM
CO[C@@H]1CCN(C(=O)Nc2cn(C(N)=O)c3ccccc23)[C@@H]1C(=O)NCc1cccc(Cl)c1F [Example 186, (2S,3R)-3-Methoxy-pyrrolidine-1,2-dicarboxylic acid 1-[(1-carbamoyl-1H-indol-3-yl)-amide] 2-(3-chloro-2-fluoro-benzylamide)] | 20 nM
N#C[C@H]1C[C@@H](C(=O)Nc2cccc(OC(F)(F)F)c2F)N(C(=O)Nc2cn(C(N)=O)c3ccccc23)C1 [Example 188, (2S,4S)-4-cyano-pyrrolidine-1,2-dicarboxylic acid 1-[(1-carbamoyl-1H-indol-3-yl)-amide]2-[(2-fluoro-3-trifluoromethoxy-phenyl)-amide]] | 1070 nM
CN(C)[C@@H]1CN(C(=O)Nc2cn(C(N)=O)c3ccccc23)[C@H](C(=O)NCc2cccc(Cl)c2F)[C@H]1F [Example 189, (2R,3S,4R)-4-Dimethylamino-3-fluoro-pyrrolidine-1,2-dicarboxylic acid 1-[(1-carbamoyl-1H-indol-3-yl)-amide] 2-(3-chloro-2-fluoro-benzylamide)] | 942 nM
NC(=O)n1cc(NC(=O)N2CC[C@@H](F)[C@H]2C(=O)NCc2cccc(Cl)c2F)c2ccccc21 [Example 190, (2R,3R)-3-Fluoro-pyrrolidine-1,2-dicarboxylic acid 1-[(1-carbamoyl-1H-indol-3-yl)-amide] 2-(3-chloro-2-fluoro-benzylamide)] | 20 nM
C[C@@]1(C(=O)Nc2cccc(OC(F)(F)F)c2)CCCN1C(=O)Nc1cn(C(N)=O)c2ccccc12 [Example 192, (S)-2-Methyl-pyrrolidine-1,2-dicarboxylic acid 1-[(1-carbamoyl-1H-indol-3-yl)-amide] 2-[(3-trifluoromethoxy-phenyl)-amide]] | 17800 nM
NC(=O)n1cc(NC(=O)N2C[C@H](F)C[C@H]2C(=O)Nc2cncc(Cl)c2)c2ccccc21 [Example 193, (2S,4R)-4-Fluoro-pyrrolidine-1,2-dicarboxylic acid 1-[(1-carbamoyl-1H-indol-3-yl)-amide] 2-[(5-chloro-pyridin-3-yl)-amide]] | 160 nM
NC(=O)n1cc(NC(=O)N2C[C@H](F)C[C@H]2C(=O)Nc2cncc(Br)c2)c2ccccc21 [Example 194, (2S,4R)-4-Fluoro-pyrrolidine-1,2-dicarboxylic acid 1-[(1-carbamoyl-1H-indol-3-yl)-amide] 2-[(5-bromo-pyridin-3-yl)-amide]] | 93 nM
NC(=O)n1cc(NC(=O)N2[C@@H]3C[C@@H]3C[C@H]2C(=O)NCc2cccc(F)c2F)c2ccccc21 [Example 195, (1R,3S,5R)-2-Aza-bicyclo[3.1.0]hexane-2,3-dicarboxylic acid 2-[(1-carbamoyl-1H-indol-3-yl)-amide] 3-(2,3-difluoro-benzylamide)] | 14 nM
NC(=O)n1cc(NC(=O)N2C[C@@](O)(CO)C[C@H]2C(=O)NCc2cccc(Cl)c2F)c2ccccc21 [Example 196, (2S,4R)-4-Hydroxy-4-hydroxymethyl-pyrrolidine-1,2-dicarboxylic acid 1-[(1-carbamoyl-1H-indol-3-yl)-amide] 2-(3-chloro-2-fluoro-benzylamide)] | 700 nM
NC(=O)n1cc(NC(=O)N2C[C@H]3OC3[C@H]2C(=O)NCc2cccc(Cl)c2F)c2ccccc21 (stereo partly drawn) [Example 197, (1S,2S,5R)-6-Oxa-3-aza-bicyclo[3.1.0]hexane-2,3-dicarboxylic acid 3-[(1-carbamoyl-1H-indol-3-yl)-amide] 2-(3-chloro-2-fluoro-benzylamide)] | 100 nM
COC(=O)c1cc(Br)cc(NC(=O)[C@@H]2SCCN2C(=O)Nc2cn(C(N)=O)c3ccccc23)c1 [Example 198, 3-Bromo-5-{[(S)-3-(1-carbamoyl-1H-indol-3-ylcarbamoyl)-thiazolidine-2-carbonyl]-amino}-benzoic acid methyl ester] | 357 nM
